# Read-outs that look alike come from different tables or passages of the source.
# Settings: disulfide bond
compound,measurement,setting,value
somatostatin,"ring closure, conversion",38-membered ring,99%
CC[C@H](C)[C@H](NC(=O)[C@H](CC(=O)O)NC(=O)[C@@H](NC(C)=O)[C@@H](C)O)C(=O)N[C@H](C(=O)N[C@H]1CSSC[C@@H](C(=O)N[C@@H](Cc2c[nH]cn2)C(=O)N[C@@H](CCCCN)C(=O)N[C@@H](CC(C)C)C(=O)N[C@@H](Cc2c[nH]cn2)C(N)=O)NC(=O)[C@H](Cc2ccc(O)cc2)NC(=O)CNC1=O)[C@@H](C)O [Ac-Thr-Asp-Ile-Thr-Cys-Gly-Tyr-Cys-His-Lys-Leu-His-NH2],"ring closure, conversion","from Ac-Thr-Asp-Ile-Thr-Cys-Gly-Tyr-Cys-His-Lys-Leu-His-NH2, 14-membered ring, trans-[Pt(en)2Cl2]2+",100%
CC(=O)N[C@H](C(=O)N[C@H]1CSSC[C@@H](C(=O)N[C@@H](CCCNC(=N)N)C(N)=O)NC(=O)[C@H](Cc2ccccc2)NC(=O)[C@@H]2CCCN2C1=O)[C@@H](C)O [Ac-Thr-Cys-Pro-Phe-Cys-Arg-NH2],"ring closure, conversion","from Ac-Thr-Cys-Pro-Phe-Cys-Arg-NH2, 14-membered ring, trans-[Pt(en)2Cl2]2+",100%
N=C(N)NCCC[C@H](NC(=O)[C@@H]1CCCN1C(=O)[C@@H]1CSSC[C@H](N)C(=O)N[C@@H](Cc2ccc(O)cc2)C(=O)N[C@@H](Cc2ccccc2)C(=O)N[C@@H](CCC(N)=O)C(=O)N[C@@H](CC(N)=O)C(=O)N1)C(=O)NCC(N)=O [arginine-vasopressin],"ring closure, conversion","from H-Cys-Tyr-Phe-Gln-Asn-Cys-Pro-Arg-Gly-NH2, 20-membered ring, trans-[Pt(en)2Cl2]2+",100%
H-Cys-Phe-Gly-Ser-Arg-Ile-Asp-Arg-Ile-Gly-Ala-Gln-Ser-Gly-Met-Gly-Cys-Gly-Arg-Phe-OH,"ring closure, conversion","the molecule shown is the open-chain precursor, 53-membered ring, trans-[Pt(en)2Cl2]2+, phosphate buffer pH 6.0, 0.04 mM",100%
CC[C@H](C)[C@@H]1NC(=O)[C@H](Cc2ccc(O)cc2)NC(=O)[C@@H](N)CSSC[C@@H](C(=O)N2CCC[C@H]2C(=O)N[C@@H](CC(C)C)C(=O)NCC(N)=O)NC(=O)[C@H](CC(N)=O)NC(=O)[C@H](CCC(N)=O)NC1=O [oxytocin],"ring closure, conversion","from H-Cys-Tyr-Ile-Gln-Asn-Cys-Pro-Leu-Gly-NH2, 20-membered ring, trans-[Pt(en)2Cl2]2+",98%
NC(=O)CC[C@@H]1NC(=O)[C@H](Cc2ccccc2)NC(=O)[C@H](Cc2ccc(O)cc2)NC(=O)[C@@H](N)CSSC[C@@H](C(=O)O)NC(=O)[C@H](CC(N)=O)NC1=O [pressinoic acid],"ring closure, conversion","from H-Cys-Tyr-Phe-Gln-Asn-Cys-OH, 20-membered ring, trans-[Pt(en)2Cl2]2+",100%
CSCC[C@H](NC(=O)[C@H](CC(C)C)NC(=O)[C@@H]1CCCN1C(=O)[C@H](Cc1ccc(O)cc1)NC(=O)[C@H](Cc1ccccc1)NC(=O)[C@@H]1CSSC[C@H](NC(=O)[C@@H]2CCCN2C(=O)[C@@H](N)CCCNC(=N)N)C(=O)N2CCC[C@H]2C(=O)N[C@@H](CCC(N)=O)C(=O)N1)C(N)=O [H-Arg-Pro-Cys-Pro-Gln-Cys-Phe-Tyr-Pro-Leu-Met-NH2],"ring closure, conversion","from H-Arg-Pro-Cys-Pro-Gln-Cys-Phe-Tyr-Pro-Leu-Met-NH2, 14-membered ring",99%
CC(=O)N[C@H]1CSSC[C@@H](C(N)=O)NC(=O)[C@@H]2CCCN2C(=O)CNC1=O [Ac-Cys-Gly-Pro-Cys-NH2],"ring closure, conversion","from Ac-Cys-Gly-Pro-Cys-NH2, 14-membered ring, trans-[Pt(en)2Cl2]2+",100%
CC(=O)N[C@H]1CSSC[C@@H](C(N)=O)NC(=O)[C@H](Cc2ccccc2)NC(=O)[C@@H]2CCCN2C1=O [Ac-Cys-Pro-Phe-Cys-NH2],"ring closure, conversion","from Ac-Cys-Pro-Phe-Cys-NH2, 14-membered ring, trans-[Pt(en)2Cl2]2+",97%
CC(=O)N[C@@H](CCCCN)C(=O)N1CCC[C@H]1C(=O)N[C@H](C(=O)N[C@H]1CSSC[C@@H](C(=O)N[C@@H](CCCNC(=N)N)C(=O)N[C@@H](CCCCN)C(=O)N[C@H](C(N)=O)[C@@H](C)O)NC(=O)[C@H](Cc2ccccc2)NC(=O)[C@@H]2CCCN2C1=O)[C@@H](C)O [Ac-Lys-Pro-Thr-Cys-Pro-Phe-Cys-Arg-Lys-Thr-NH2],"ring closure, conversion","from Ac-Lys-Pro-Thr-Cys-Pro-Phe-Cys-Arg-Lys-Thr-NH2, 14-membered ring, trans-[Pt(en)2Cl2]2+",100%
CC(=O)N1CCC[C@H]1C(=O)N[C@H](C(=O)N[C@H]1CSSC[C@@H](C(=O)N[C@@H](CCCNC(=N)N)C(=O)N[C@@H](CCCCN)C(N)=O)NC(=O)[C@H](Cc2ccccc2)NC(=O)[C@@H]2CCCN2C1=O)[C@@H](C)O [Ac-Pro-Thr-Cys-Pro-Phe-Cys-Arg-Lys-NH2],"ring closure, conversion","from Ac-Pro-Thr-Cys-Pro-Phe-Cys-Arg-Lys-NH2, 14-membered ring, trans-[Pt(en)2Cl2]2+",100%
CC(=O)N[C@H]1CSSC[C@@H](C(N)=O)NC(=O)[C@H](C)NC(=O)[C@H](C)NC(=O)[C@H](Cc2ccccc2)NC(=O)[C@@H]2CCCN2C1=O [Ac-Cys-Pro-Phe-Ala-Ala-Cys-NH2],"ring closure, conversion","from Ac-Cys-Pro-Phe-Ala-Ala-Cys-NH2, 20-membered ring, trans-[Pt(en)2Cl2]2+",100%
COc1ccc(C[C@@H]2NC(=O)CC(C)(C)SSC[C@@H](C(=O)N3CCC[C@H]3C(=O)N[C@@H](CCCNC(=N)N)C(=O)NCC(N)=O)NC(=O)[C@H](CC(N)=O)NC(=O)[C@H](CCC(N)=O)NC(=O)[C@H](Cc3ccccc3)NC2=O)cc1,"ring closure, conversion","from HSC(Me)2CH2CO-Tyr(Me)-Phe-Gln-Asn-Cys-Pro-Arg-Gly-NH2, 20-membered ring, trans-[Pt(en)2Cl2]2+",97%

# From patent US6686443
